Measured values as given in patent US20190031717A1, “MULTI-FUNCTIONAL FUSION POLYPEPTIDE, PREPARATION METHOD THEREOF, AND APPLICATION OF SAME” (NANJING ANJI BIOLOGICAL TECHNOLOGY CO., LTD, priority 2016, published 2019).

Tests used:
Cervical cancer = assay: MTT assay, tumor cells; type: cell-based, human; design: concentration or dose not given beside the values; settings: 48 hours, mean ± SD
Method: (§1) A variety of human tumor cells were cultured in a 37° C., 5% (volume fraction) CO2 incubator to a density of 90% or more, collected by trypsinization, resuspended in a culture medium and counted under a microscope, and the cells were harvested. The concentration was adjusted to 2.0×10^4 cells/mL, the cell suspension was inoculated into a 96-well plate at 100 μL per well and cultured overnight at 37° C. in a 5% (volume fraction) CO2 incubator. After the cells were completely adhered, the polypeptides of the present invention were added as drug-administered groups, and a culture solution containing no drug was used as a blank control group, and the culture solution was diluted to each predetermined concentration. Each dilution was separately added to a 96-well plate at 100 μL per well and incubated for 48 hours at 37° C. in a 5% (volume fraction) CO2 incubator. 20 μL of 5 mg/mL MTT was added to each well of a 96-well plate and incubation was continued for 4 h. The medium was aspirated and dissolved in 100 μL of DMSO per well. The absorbance was measured with a microplate reader at a detection wavelength of 570 nm and a reference wavelength of 630 nm, and the growth inhibition rate was calculated as follows: tumor growth inhibition rate (%)=(1−absorbance value of the administered group/unadministered group absorbance value)×100%, and the experiment was repeated 3 times independently. The results obtained from the test were expressed as mean±standard deviation, and the tumor growth inhibition rate of the unadministered group was 0. The results in Table 7 indicate that the polypeptides of the present invention have a significant inhibitory effect on the growth of various tumors (FIG. 6).

Breast cancer = assay: MTT assay, tumor cells; type: cell-based, human; design: concentration or dose not given beside the values; settings: 48 hours, mean ± SD
Method: as §1

Prostate cancer = assay: MTT assay, tumor cells; type: cell-based, human; design: concentration or dose not given beside the values; settings: 48 hours, mean ± SD
Method: as §1

Liver cancer = assay: MTT assay, tumor cells; type: cell-based, human; design: concentration or dose not given beside the values; settings: 48 hours, mean ± SD
Method: as §1

Head and neck cancer = assay: MTT assay, tumor cells; type: cell-based, human; design: concentration or dose not given beside the values; settings: 48 hours, mean ± SD
Method: as §1

Hemangioma = assay: MTT assay, tumor cells; type: cell-based, human; design: concentration or dose not given beside the values; settings: 48 hours, mean ± SD
Method: as §1

Colorectal cancer = assay: MTT assay, tumor cells; type: cell-based, human; design: concentration or dose not given beside the values; settings: 48 hours, mean ± SD
Method: as §1

Ovarian cancer = assay: MTT assay, tumor cells; type: cell-based, human; design: concentration or dose not given beside the values; settings: 48 hours, mean ± SD
Method: as §1

Brain tumor = assay: MTT assay, tumor cells; type: cell-based, human; design: concentration or dose not given beside the values; settings: 48 hours, mean ± SD
Method: as §1

Esophageal cancer = assay: MTT assay, tumor cells; type: cell-based, human; design: concentration or dose not given beside the values; settings: 48 hours, mean ± SD
Method: as §1

Pancreatic cancer = assay: MTT assay, tumor cells; type: cell-based, human; design: concentration or dose not given beside the values; settings: 48 hours, mean ± SD
Method: as §1

Melanoma = assay: MTT assay, tumor cells; type: cell-based, human; design: concentration or dose not given beside the values; settings: 48 hours, mean ± SD
Method: as §1

Thyroid cancer = assay: MTT assay, tumor cells; type: cell-based, human; design: concentration or dose not given beside the values; settings: 48 hours, mean ± SD
Method: as §1

Kidney cancer = assay: MTT assay, tumor cells; type: cell-based, human; design: concentration or dose not given beside the values; settings: 48 hours, mean ± SD
Method: as §1

Uterine cancer = assay: MTT assay, tumor cells; type: cell-based, human; design: concentration or dose not given beside the values; settings: 48 hours, mean ± SD
Method: as §1

Gastric cancer = assay: MTT assay, tumor cells; type: cell-based, human; design: concentration or dose not given beside the values; settings: 48 hours, mean ± SD
Method: as §1

Bladder Cancer = assay: MTT assay, tumor cells; type: cell-based, human; design: concentration or dose not given beside the values; settings: 48 hours, mean ± SD
Method: as §1

sarcoma = assay: MTT assay, tumor cells; type: cell-based, human; design: concentration or dose not given beside the values; settings: 48 hours, mean ± SD
Method: as §1

[1] = tested on: Non-small cell lung cancer; assay: MTT assay, lung cancer tumor cells; type: cell-based, human; design: concentration or dose not given beside the values; settings: 48 h, mean ± SD
Method: (§2) The inhibition of the growth of human lung cancer tumor cells by the polypeptide of the present invention was examined by MTT assay. The lung cancer tumor cells were cultured in a 37° C., 5% (volume fraction) CO2 incubator to a density of 90% or more, and collected by trypsinization. The cells were resuspended in the culture medium and counted under a microscope to adjust the cell concentration to 2.0×10^4 cells/mL, the cell suspension was inoculated into a 96-well plate at 100 μL per well, and cultured overnight at 37° C. in a 5% (volume fraction) CO2 incubator. After the cells were completely adhered, the polypeptide of the present invention was added as a drug-administered group, and a culture solution containing no drug was used as a blank control group, and the culture solution was diluted to each predetermined concentration. Each dilution was separately added to a 96-well plate at 100 μL per well and incubated for 48 h at 37° C. in a 5% (volume fraction) CO2 incubator. 20 μL of 5 mg/mL MTT was added to each well of a 96-well plate, and incubation was continued for 4 hours. The medium was aspirated, and the cells were dissolved in 100 μL of DMSO per well. The absorbance was measured by a microplate reader at a detection wavelength of 570 nm and a reference wavelength of 630 nm, and the growth inhibition rate was calculated as follows: tumor growth inhibition rate (%)=(1−administered group absorbance value/unadministered group absorbance value)×100%, and the experiment was repeated 3 times independently. The results obtained by the test were expressed as mean±standard deviation. The results in Table 6 indicate that the polypeptides of the present invention have a good inhibitory effect on proliferation of a variety of human lung cancer tumors (FIG. 5).

Large cell lung cancer = assay: MTT assay, lung cancer tumor cells; type: cell-based, human; design: concentration or dose not given beside the values; settings: 48 h, mean ± SD
Method: as §2

Adenosquamous carcinoma = assay: MTT assay, lung cancer tumor cells; type: cell-based, human; design: concentration or dose not given beside the values; settings: 48 h, mean ± SD
Method: as §2

Adenocarcinoma = assay: MTT assay, lung cancer tumor cells; type: cell-based, human; design: concentration or dose not given beside the values; settings: 48 h, mean ± SD
Method: as §2

Squamous cell carcinoma = assay: MTT assay, lung cancer tumor cells; type: cell-based, human; design: concentration or dose not given beside the values; settings: 48 h, mean ± SD
Method: as §2

Small Cell Lung Cancer = assay: MTT assay, lung cancer tumor cells; type: cell-based, human; design: concentration or dose not given beside the values; settings: 48 h, mean ± SD
Method: as §2

protozoa = assay: Mouse pneumonia model, protozoal; type: in vivo, BALB/C mice; design: concentration or dose not given beside the values; settings: mean ± SD
Method: (§3) The mouse pneumonia model was successfully established by the nose-drop method. To build the mouse pneumonia model, BALB/C mice with a body mass of 16-22 g were selected and anesthetized pneumonia chain was prepared after anesthesia with ether on day 0, day 1, and day 2. Staphylococcal fluid, adenovirus concentrate, Mycoplasma pneumoniae, Chlamydia pneumoniae, protozoa, and pneumonia fungi were slowly dripped into the nasal cavity of the mice, so that they enter the tracheobronchial. During the operation process, care was exercised to prevent bacterial fluid from flowing into the esophagus, which leads to inactivation the bacterial fluid. After successful model establishment, the polypeptides of the present invention were administered, and the results were shown in Table 5. […] The results were expressed in average value±standard deviation.

[2] = tested on: Pneumonia caused by lung infection; assay: Mouse pneumonia model, pneumonia caused by lung infection; type: in vivo, BALB/C mice; design: concentration or dose not given beside the values; settings: mean ± SD
Method: as §3

pneumonia fungi = assay: Mouse pneumonia model, fungal; type: in vivo, BALB/C mice; design: concentration or dose not given beside the values; settings: mean ± SD
Method: as §3

adenovirus concentrate = assay: Mouse pneumonia model, viral; type: in vivo, BALB/C mice; settings: mean ± SD
Method: as §3

Mycoplasma pneumoniae = assay: Mouse pneumonia model, mycoplasma; type: in vivo, BALB/C mice; design: concentration or dose not given beside the values; settings: mean ± SD
Method: as §3

Staphylococcal fluid = assay: Mouse pneumonia model, bacterial; type: in vivo, BALB/C mice; design: concentration or dose not given beside the values; settings: mean ± SD
Method: as §3

Chlamydia pneumoniae = assay: Mouse pneumonia model, chlamydia; type: in vivo, BALB/C mice; design: concentration or dose not given beside the values; settings: mean ± SD
Method: as §3

CC(=O)O[C@@]12CO[C@@H]1C[C@H](O)[C@@]1(C)C(=O)[C@H](O)C3=C(C)[C@@H](OC(=O)[C@H](O)[C@@H](NC(=O)OC(C)(C)C)c4ccccc4)C[C@@](O)([C@@H](OC(=O)c4ccccc4)[C@H]21)C3(C)C [Docetaxel, reference compound]
tumor growth inhibition rate, MTT Assay (Cervical cancer): 50.54 ± 21.82% | tumor growth inhibition rate, MTT Assay (Breast cancer): 61.44 ± 18.58% | tumor growth inhibition rate, MTT Assay (Prostate cancer): 54.25 ± 19.68% | tumor growth inhibition rate, MTT Assay (Liver cancer): 48.95 ± 14.80% | tumor growth inhibition rate, MTT Assay (Head and neck cancer): 32.59 ± 9.86% | tumor growth inhibition rate, MTT Assay (Hemangioma): 68.47 ± 20.71% | tumor growth inhibition rate, MTT Assay (Colorectal cancer): 57.20 ± 17.30% | tumor growth inhibition rate, MTT Assay (Ovarian cancer): 60.97 ± 18.44% | tumor growth inhibition rate, MTT Assay (Brain tumor): 45.90 ± 13.88% | tumor growth inhibition rate, MTT Assay (Esophageal cancer): 44.16 ± 13.36% | tumor growth inhibition rate, MTT Assay (Pancreatic cancer): 49.42 ± 18.21% | tumor growth inhibition rate, MTT Assay (Melanoma): 38.17 ± 11.54% | tumor growth inhibition rate, MTT Assay (Thyroid cancer): 42.03 ± 12.71% | tumor growth inhibition rate, MTT Assay (Kidney cancer): 40.23 ± 15.44% | tumor growth inhibition rate, MTT Assay (Uterine cancer): 52.33 ± 19.09% | tumor growth inhibition rate, MTT Assay (Gastric cancer): 43.57 ± 16.44% | tumor growth inhibition rate, MTT Assay (Bladder Cancer): 34.82 ± 10.53% | tumor growth inhibition rate, MTT Assay (sarcoma): 44.26 ± 13.39% | tumor growth inhibition rate, MTT Assay [1]: 55.50 ± 19.83% | tumor growth inhibition rate, MTT Assay (Large cell lung cancer): 52.69 ± 16.12% | tumor growth inhibition rate, MTT Assay (Adenosquamous carcinoma): 35.87 ± 13.84% | tumor growth inhibition rate, MTT Assay (Adenocarcinoma): 52.54 ± 15.12% | tumor growth inhibition rate, MTT Assay (Squamous cell carcinoma): 39.78 ± 10.73% | tumor growth inhibition rate, MTT Assay (Small Cell Lung Cancer): 42.16 ± 14.54%

Penicillin [reference compound]
Inhibitory Effects on Various Pulmonary Infections (protozoa): 37.00 ± 20.45% | Inhibitory Effects on Various Pulmonary Infections [2]: 31.03 ± 18.46% | Inhibitory Effects on Various Pulmonary Infections (pneumonia fungi): 35.13 ± 16.62% | Inhibitory Effects on Various Pulmonary Infections (adenovirus concentrate): 35.02 ± 15.58% | Inhibitory Effects on Various Pulmonary Infections (Mycoplasma pneumoniae): 23.91 ± 14.27% | Inhibitory Effects on Various Pulmonary Infections (Staphylococcal fluid): 26.52 ± 11.07% | Inhibitory Effects on Various Pulmonary Infections (Chlamydia pneumoniae): 28.10 ± 14.99%
